From patent publication US20030032813A1, “Rhodanine carboxylic acid derivatives for the treatment and prevention of metabolic bone disorders” (Angelika Esswein, Wolfgang Schaefer, and Konrad Honold, priority 1998, published 2003) come the findings set out here.

Molecules are shown by their SMILES.

One data set deals with adenylate cyclase. Put plainly: assay for the capability of stimulating cyclic adenylate cyclase (cAMP formation). The class given is biochemical. An excerpt: Compounds of general formula (I) were investigated in a suitable assay for the capability of stimulating cyclic adenylate cyclase.
Turning to `CC(C=CC1=C(C)CCCC1(C)C)=CC=C1SC(=S)N(CC(=O)O)C1=O` [Example 46, 5-(3-Methyl-5-(2,6,6trimethyl-cyclohex-1-enyl)-penta-2,4-dienyliden]-4-oxo-2-thioxo-thiazolidin-3-yl-acetic acid], the “% cAMP (Test conc. 50 μM)” value is listed as 30%.

`CC(C=CC1=C(C)CCCC1(C)C)=C1SC(=S)N(CC(=O)O)C1=O` [Example 22, 5-[1-Methyl-3-[2,6,6-trimethyl-cyclohex-1-enyl)-allylidene]-4-oxo-2-thioxo-thiazolidin-3-yl-acetic acid]: the “% cAMP (Test conc. 50 μM)” value is 10%.

`O=C(O)CN1C(=O)C(=CC=CC=Cc2cc3ccccc3s2)SC1=S` [Example 13, [5-(5-Benzo [b]thiophen-2-yl-penta-2,4-dienylidene)-4-oxo-2-thioxo-thiazolidin-3-yl]-acetic acid]: the “% cAMP (Test conc. 50 μM)” value came out at 10%.

For `CC(C)(C)c1cc(C=C2SC(=S)N(CC(=O)O)C2=O)cc(C(C)(C)C)c1O` [Example 25, [5-(3,5-Di-tert-butyl-4-hydroxy-benzylidene)-4-oxo-2-thioxo-thiazolidin-3-yl]-acetic acid], the “% cAMP (Test conc. 50 μM)” value turned out to be 40%.

As to `CC(C)(C)c1cc(C=C2SC(=S)N(CCC(=O)O)C2=O)cc(C(C)(C)C)c1O` [Example 60, 3-[5-(3,5-Di-tert-butyl-4-hydroxy-benzylidene)-4-oxo-2-thioxo-thiazolidin-3-yl]-propionic acid], the “% cAMP (Test conc. 50 μM)” value stood at 20%.

For `CC1=C(C=C2SC(=S)N(CCC(=O)O)C2=O)C(C)(C)CCC1` [Example 59, 3-(4-Oxo-2-thioxo-5-(2,6,6-trimetyl-cyclohex-1-enylmethylene)-thiazolidin-3-yl]-propionic acid], the “% cAMP (Test conc. 50 μM)” value came out at 15%.

As for `O=C(O)CN1C(=O)C(=CC=Cc2cc3ccccc3s2)SC1=S` [Example 16, [5-(3-Benzo [b]thiophen-2-yl-allylidene)-4-oxo-2-thioxo-thiazoldin-3-yl]-acetic acid], the “% cAMP (Test conc. 50 μM)” value worked out at 8%.

Regarding `CC(C=CC1=C(C)CCCC1(C)C)=C1SC(=S)N(CCC(=O)O)C1=O` [Example 72, 3-5-[1-Methyl-3-(2,6,6-trimethyl-cyclohex-1-enyl)-allylidene]-4-oxo-2-thioxo-thiazolidin-3-yl-propionic acid], the “% cAMP (Test conc. 50 μM)” value is given as 15%.

In the case of `CC(C)(C)c1cc(C=C2SC(=S)N(CC(=O)O)C2=O)ccc1O` [Example 23, [5-(3-tert-Butyl-4-hydroxy-benzylidene)-4-oxo-2-thioxo-thiazolidin-3-yl]-acetic acid], the “% cAMP (Test conc. 50 μM)” value turned out to be 8%.

`CC(C)(C)c1cc(C=C2SC(=S)N(C(Cc3ccccc3)C(=O)O)C2=O)cc(C(C)(C)C)c1O` (stereo not drawn) [Example 3, 2-[5-(3,5-Di-tert-butyl-4-hydroxy-benzylidene)-4-oxo-2-thioxo-thiazolidin-3-yl]-3-phenyl-propionic acid]: the “% cAMP (Test conc. 50 μM)” value turned out to be 8%.

Tested on in another data set: not given
Assay: not given
Turning to `O=C(O)CN1C(=O)C(=Cc2ccc(O)c(O)c2O)SC1=S`, the melting point is 263 °C (dec.).

`COc1cccc(C=C2SC(=S)N(CC(=O)O)C2=O)c1` displayed a melting point of 193 to 196 °C.

`CCCCCCOc1ccccc1C=C1SC(=S)N(CC(=O)O)C1=O` registered a melting point of 148 to 150 °C.

In turn, `O=C(O)CN1C(=O)C(=CC2=CC=C(OCc3ccccc3)C(O)(O)C2)SC1=S` registered a melting point of 178 to 180 °C.

The compound `COc1cccc(COc2ccc(C=C3SC(=S)N(CC(=O)O)C3=O)cc2)c1` returned a melting point of 191 to 193 °C.

For `O=C(O)CN1C(=O)C(=Cc2ccc(OCc3ccccc3)c(OCc3ccccc3)c2)SC1=S`, the melting point was 187 to 188 °C.

`O=C(O)CCC(C(=O)O)N1C(=O)C(=Cc2cc3ccccc3s2)SC1=S` (stereo not drawn) yielded a melting point of 220 to 221 °C.

On to `CC(C=CC1=C(C)CCCC1(C)C)=CC=C1SC(=S)N(CC(=O)O)C1=O` [Example 46, 5-(3-Methyl-5-(2,6,6trimethyl-cyclohex-1-enyl)-penta-2,4-dienyliden]-4-oxo-2-thioxo-thiazolidin-3-yl-acetic acid], for which the melting point fell in the range of 153 to 155 °C.

In the case of `Cc1cc(C=C2SC(=S)N(CC(=O)O)C2=O)cc(C)c1O`, the melting point is 277 to 279 °C.

Take `CC(=O)Oc1ccc(C=C2SC(=S)N(CC(=O)O)C2=O)cc1OC(C)=O`: the melting point lay within 193 to 253 °C.

`CCN(CC)C(=O)CN1C(=O)C(=Cc2cc(C(C)(C)C)c(O)c(C(C)(C)C)c2)SC1=S` gave a melting point of 223 to 225 °C.

`CCOc1c(C)cc(C=C2SC(=S)N(CC(=O)O)C2=O)c(C)c1OCC` returned a melting point of 185 to 190 °C.

`CC(C=CC1=C(C)CCCC1(C)C)=CC=CC(C)=CC=C1SC(=S)N(CC(=O)O)C1=O`: the melting point is 144 °C (dec.).

Turning to `CC(C)(C)c1cc(C=C2SC(=S)N(C(Cc3c[nH]c4ccccc34)C(=O)O)C2=O)cc(C(C)(C)C)c1O` (stereo not drawn), the melting point was 140 °C (dec.).

In turn, `O=C(O)CN1C(=O)C(=CC2CCN(C(=O)OCc3ccccc3)CC2)SC1=S` gave a melting point of 114 to 115 °C.

As for `O=C(O)COc1ccc(CC=C2SC(=S)N(CC(=O)O)C2=O)cc1`, the melting point was 111 to 120 °C (dec.).

Regarding `O=C(O)CN1C(=O)C(=Cc2cc3ccccc3s2)SC1=S`, the melting point is 292 to 294 °C.

In the case of `O=C(O)CCCCCN1C(=O)C(=Cc2cc(O)c(O)c(O)c2)SC1=S`, the melting point fell in the range of 212 to 214 °C.

For the compound `CC1C(C=C2SC(=S)N(CC(=O)O)C2=O)=CC=C(O)C1(C)O` (stereo not drawn), the melting point is greater than 240 °C.

`O=C(O)CN1C(=O)C(=Cc2ccc(O)c(C(=O)O)c2)SC1=S` had a melting point greater than 260 °C.

For `CC(C=CC1=C(C)CCCC1(C)C)=C1SC(=S)N(CC(=O)O)C1=O` [Example 22, 5-[1-Methyl-3-[2,6,6-trimethyl-cyclohex-1-enyl)-allylidene]-4-oxo-2-thioxo-thiazolidin-3-yl-acetic acid], the melting point was 100 °C (dec.).

Take `O=C(O)CN1C(=O)C(=CCCc2ccccc2)SC1=S`: the melting point lay in the range of 108 to 111 °C.

Turning to `O=C(O)CN1C(=O)C(=CC=CC=Cc2cc3ccccc3s2)SC1=S` [Example 13, [5-(5-Benzo [b]thiophen-2-yl-penta-2,4-dienylidene)-4-oxo-2-thioxo-thiazolidin-3-yl]-acetic acid], the melting point is greater than 240 °C.

In turn, `COc1ccc(COc2ccc(C=C3SC(=S)N(CC(=O)O)C3=O)cc2)cc1` displayed a melting point of 172 to 173 °C.

`CCC1=C(C=CC(C)=CC=CC=C2SC(=S)N(CC(=O)O)C2=O)C(CC)(CC)CCC1` displayed a melting point of 192 to 195 °C.

Consider `Cc1[nH]c2ccccc2c1C=C1SC(=S)N(CC(=O)O)C1=O`, for which the melting point was in the range of 268 to 270 °C.

`CCCCN(CCCC)c1ccc(C=C2SC(=S)N(CC(=O)O)C2=O)cc1` returned a melting point of 186 to 188 °C.

The compound `CN1C(=O)C(=Cc2cc(C(C)(C)C)c(O)c(C(C)(C)C)c2)SC1=S` showed a melting point greater than 240 °C.

`CC(=O)Nc1ccc2sc(C=C3SC(=S)N(CC(=O)O)C3=O)cc2c1` gave a melting point greater than 240 °C.

For the compound `O=C(O)CC(C(=O)O)N1C(=O)C(=Cc2cc3ccccc3s2)SC1=S` (stereo not drawn), the melting point is 240 °C (dec.).

Compound `CC(C)(C)c1cc(C=C2SC(=S)N(CC(=O)O)C2=O)cc(C(C)(C)C)c1O` [Example 25, [5-(3,5-Di-tert-butyl-4-hydroxy-benzylidene)-4-oxo-2-thioxo-thiazolidin-3-yl]-acetic acid] displayed a melting point of 120 to 121 °C.

Regarding `CC(C)(C)c1cc(C=C2SC(=S)N(C(CC(=O)O)C(=O)O)C2=O)cc(C(C)(C)C)c1O` (stereo not drawn), the melting point was 240 °C (dec.).

`O=C(O)CN1C(=O)C(=Cc2cc(OCc3ccccc3)ccc2O)SC1=S` displayed a melting point of 130 to 133 °C.

The compound `CC(C)(C)c1cc(C=C2SC(=S)N(CCC(=O)O)C2=O)cc(C(C)(C)C)c1O` [Example 60, 3-[5-(3,5-Di-tert-butyl-4-hydroxy-benzylidene)-4-oxo-2-thioxo-thiazolidin-3-yl]-propionic acid] gave a melting point of 218 to 219 °C.

Regarding `COc1ccc(C=C2SC(=S)N(CC(=O)O)C2=O)cc1C`, the melting point was 235 to 236 °C.

In turn, `COc1cc(C)c(C=C2SC(=S)N(CC(=O)O)C2=O)cc1C` had a melting point of 240 °C.

`O=C(O)CN1C(=O)C(=Cc2ccc(OCc3ccccc3)cc2)SC1=S` gave a melting point of 205 to 206 °C.

As for `O=C(O)CN1C(=O)C(=Cc2ccc(OCc3ccc4c(c3)OCO4)cc2)SC1=S`, the melting point was in the range of 206 to 207 °C.

`CC(C)(C)c1cc(C=CC=C2SC(=S)N(CC(=O)O)C2=O)cc(C(C)(C)C)c1O` registered a melting point greater than 240 °C.

With `CC(C(=O)O)N1C(=O)C(=Cc2ccc(OCc3ccccc3)cc2)SC1=S` (stereo not drawn), the melting point was 125 to 128 °C.

Compound `O=C(O)CCN1C(=O)C(=Cc2ccc3c(c2)OCO3)SC1=S` showed a melting point of 174 to 176 °C.

As for `CCOc1c(C)cc(C=CC=C2SC(=S)N(CC(=O)O)C2=O)c(C)c1OCC`, the melting point is 210 °C (dec.).

On to `O=C(O)CCN1C(=O)C(=CC=Cc2cc3ccccc3s2)SC1=S`, for which the melting point was in the range of 246 to 248 °C.

`CC(C)(C)c1cc(C=C2SC(=S)N(C(CCC(=O)O)C(=O)O)C2=O)cc(C(C)(C)C)c1O` (stereo not drawn): the melting point is 130 °C (dec.).

`COc1cc(O)c(C=C2SC(=S)N(CC(=O)O)C2=O)c(OC)c1`: the melting point is 194 °C (dec.).

In turn, `CC(=C1SC(=S)N(CC(=O)O)C1=O)c1cc(O)cc(O)c1` yielded a melting point of 184 to 188 °C.

On to `CC(=O)Oc1cc(C=C2SC(=S)N(CC(=O)O)C2=O)cc(OC(C)=O)c1OC(C)=O`, for which the melting point is 200 °C (dec.).

Compound `COc1cc(C=C2SC(=S)N(CC(=O)O)C2=O)cc(OC)c1O` returned a melting point of 238 to 240 °C.

On to `O=C(O)CCN1C(=O)C(=Cc2cccc3ccccc23)SC1=S`, for which the melting point is 159 to 161 °C.

In turn, `COc1cc(C)c2c(c1C=C1SC(=S)N(CC(=O)O)C1=O)Oc1c(c(C)c(O)c3c1C(O)OC3=O)OC2=O` (stereo not drawn) showed a melting point greater than 260 °C.

In turn, `CCOc1cc2cc(C=CC=C3SC(=S)N(CC(=O)OC)C3=O)sc2cc1OCC` gave a melting point of 211 to 215 °C.

`CC(C)(C)c1cc(C=C2SC(=S)N(CC(=O)O)C2=O)ccc1O` [Example 23, [5-(3-tert-Butyl-4-hydroxy-benzylidene)-4-oxo-2-thioxo-thiazolidin-3-yl]-acetic acid] registered a melting point greater than 240 °C.

Compound `CCCCCc1ccc(C=C2SC(=S)N(CC(=O)O)C2=O)cc1` registered a melting point of 160 to 162 °C.

Turning to `O=C(O)CCN1C(=O)C(=Cc2ccc(OCc3ccccc3)cc2)SC1=S`, the melting point fell in the range of 188 to 191 °C.

With `CC(C)(C)c1cc(C=C2SC(=S)N(C(Cc3ccccc3)C(=O)O)C2=O)cc(C(C)(C)C)c1O` (stereo not drawn) [Example 3, 2-[5-(3,5-Di-tert-butyl-4-hydroxy-benzylidene)-4-oxo-2-thioxo-thiazolidin-3-yl]-3-phenyl-propionic acid], the melting point was 160 °C (dec.).

As for `COC(=O)CN1C(=O)C(=Cc2cc(C(C)(C)C)c(O)c(C(C)(C)C)c2)SC1=S`, the melting point is 165 to 170 °C.

Regarding `O=C(O)CN1C(=O)C(=Cc2ccc(O)cc2)SC1=S`, the melting point was 230 to 232 °C.

With `O=C(O)CN1C(=O)C(=Cc2ccc3c(c2)CCO3)SC1=S`, the melting point lay within 246 to 247 °C.

Take `O=C(O)CN1C(=O)C(=Cc2cc(OCc3ccccc3)ccc2OCc2ccccc2)SC1=S`: the melting point was 196 to 198 °C.
